Experimental data as given in article PMC2797576 (Biochemistry, 2009).
Marks after values point to notes of the source that are not given here.

What was measured:
[1] = molecular target: E. coli D-3-phosphoglycerate dehydrogenase (PGDH), native enzyme (Escherichia coli, UniProt P0A9T0); test: Steady-state inhibition of enzymatic activity of native PGDH by L-serine; type: biochemical
W139F-E360W PGDH [2] = molecular target: T1, W139F-E360W PGDH (Escherichia coli, UniProt P0A9T0, E360W/W139F); test: Steady-state inhibition of enzymatic activity of W139F-E360W PGDH by L-serine; type: biochemical, E. coli; details: W139F-E360W mutant
W139F-E360W PGDH [3] = molecular target: T1, W139F-E360W PGDH; test: Steady-state serine binding by tryptophan fluorescence quenching titration; parameters: species or system E. coli; details: 2.5 μM enzyme subunits, fit to Hill equation (eq 11)
[4] = molecular target: E. coli PGDH (native, free of bound NADH) (Escherichia coli, UniProt P0A9T0); test: Pre-steady-state stopped-flow analysis of NADH binding; details: saturating L-serine versus serine absent
W139F-E360W PGDH [5] = molecular target: T1, W139F-E360W PGDH; test: Stopped-flow transient kinetics of L-serine binding; parameters: species or system E. coli; details: for k3: estimated from Figure 9; for k2: forward rate constant of conformational change after binding; for k−3: reverse rate constant of conformational change before binding

## N[C@@H](CO)C(=O)O [L-serine]
[1]
  Hill coefficient for inhibition of enzymatic activity: 1.9 ± 0.1
W139F-E360W PGDH [2]
  Hill coefficient for inhibition of enzymatic activity: 2.2 ± 0.1
W139F-E360W PGDH [3]
  K0.5 for fluorescence quenching: 13.6 ± 0.5
[4]
  Increase in the Kd for NADH binding caused by serine, first set of sites: 15 fold
  Increase in the Kd for NADH binding caused by serine, other set of sites: 5 fold
W139F-E360W PGDH [5]; kobs1, printed >0–20
  k3: (>0–20 s^−1) ^b
W139F-E360W PGDH [5]; kobs1
  k2: 61 ± 4 s⁻¹
  k−3: 88 ± 7 s⁻¹
W139F-E360W PGDH [5]; kobs2, printed >0–2
  k3: (>0–2 s^−1) ^b
W139F-E360W PGDH [5]; kobs2
  k2: 161 ± 18 s⁻¹
  k−3: 166 ± 22 s⁻¹
